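These data come from cells grown in 96-well plates and exposed to compound for 48 hours at five concentrations. GI50 = concentration required for 50% inhibition of growth. The concentration for full growth arrest is given as TGI.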
Columns and labels:
Assay in all cases: DTP human tumour cell line panel, 48 h
OVCAR-4 ovarian = tested on: OVCAR-4 ovarian
ACHN renal = tested on: ACHN renal
HT29 colon = tested on: HT29 colon
RPMI-8226 leukemia = tested on: RPMI-8226 leukemia
LOX IMVI melanoma = tested on: LOX IMVI melanoma
A498 renal = tested on: A498 renal
T-47D breast = tested on: T-47D breast
PC-3 prostate = tested on: PC-3 prostate
KM12 colon = tested on: KM12 colon
UO-31 renal = tested on: UO-31 renal
SF-539 CNS = tested on: SF-539 CNS
U251 CNS = tested on: U251 CNS
SF-295 CNS = tested on: SF-295 CNS
HL-60(TB) leukemia = tested on: HL-60(TB) leukemia
786-0 renal = tested on: 786-0 renal
A549 NSCLC = tested on: A549 NSCLC
MCF7 breast = tested on: MCF7 breast
NCI-H522 lung = tested on: NCI-H522 lung
NCI/ADR-RES ovarian = tested on: NCI/ADR-RES ovarian
MDA-MB-435 = tested on: MDA-MB-435
M14 melanoma = tested on: M14 melanoma
NCI-H460 lung = tested on: NCI-H460 lung
MALME-3M melanoma = tested on: MALME-3M melanoma
OVCAR-8 ovarian = tested on: OVCAR-8 ovarian
SK-MEL-28 melanoma = tested on: SK-MEL-28 melanoma
K-562 leukemia = tested on: K-562 leukemia
HOP-62 NSCLC = tested on: HOP-62 NSCLC
RXF 393 renal = tested on: RXF 393 renal
OVCAR-3 ovarian = tested on: OVCAR-3 ovarian
MOLT-4 leukemia = tested on: MOLT-4 leukemia
SN12C renal = tested on: SN12C renal
DU-145 prostate = tested on: DU-145 prostate
SF-268 CNS = tested on: SF-268 CNS
HS 578T breast = tested on: HS 578T breast
HCT-15 colon = tested on: HCT-15 colon
NCI-H226 lung = tested on: NCI-H226 lung
OVCAR-5 ovarian = tested on: OVCAR-5 ovarian
SK-MEL-5 melanoma = tested on: SK-MEL-5 melanoma
SK-MEL-2 melanoma = tested on: SK-MEL-2 melanoma
SR leukemia = tested on: SR leukemia
IGROV1 ovarian = tested on: IGROV1 ovarian
BT-549 breast = tested on: BT-549 breast
UACC-62 melanoma = tested on: UACC-62 melanoma
SK-OV-3 ovarian = tested on: SK-OV-3 ovarian
MDA-MB-231 breast = tested on: MDA-MB-231 breast
CAKI-1 renal = tested on: CAKI-1 renal
CCRF-CEM leukemia = tested on: CCRF-CEM leukemia
HCT-116 colon = tested on: HCT-116 colon
SNB-75 CNS = tested on: SNB-75 CNS
COLO 205 colon = tested on: COLO 205 colon
HOP-92 NSCLC = tested on: HOP-92 NSCLC
HCC-2998 colon = tested on: HCC-2998 colon
SNB-19 CNS = tested on: SNB-19 CNS
EKVX NSCLC = tested on: EKVX NSCLC
SW-620 colon = tested on: SW-620 colon
UACC-257 melanoma = tested on: UACC-257 melanoma
TK-10 renal = tested on: TK-10 renal

O=C(Nc1cc(Cl)cc(Cl)c1)Nc1ccc2oc(=O)ccc2c1 gave a GI50 (OVCAR-4 ovarian) of 3.23 µM, a TGI (OVCAR-4 ovarian) of 14.1 µM and a GI50 (ACHN renal) of 3.3 µM. For the same molecule, the TGI (ACHN renal) was 11.2 µM, the GI50 (HT29 colon) was 2.59 µM and the TGI (HT29 colon) was 9.86 µM. The GI50 (RPMI-8226 leukemia) was 1.53 µM, the TGI (RPMI-8226 leukemia) was 4.89 µM and the GI50 (LOX IMVI melanoma) was 2.04 µM. The TGI (LOX IMVI melanoma) was 4.66 µM, the GI50 (A498 renal) was 2.59 µM and the TGI (A498 renal) was 7.07 µM. It also gave a GI50 (T-47D breast) of 1.93 µM, a TGI (T-47D breast) of 7.5 µM and a GI50 (PC-3 prostate) of 1.9 µM. For the same molecule, the TGI (PC-3 prostate) was 11 µM, the GI50 (KM12 colon) was 3.05 µM and the TGI (KM12 colon) was 10.8 µM. The GI50 (UO-31 renal) was 1.94 µM, the TGI (UO-31 renal) was 7.48 µM and the GI50 (SF-539 CNS) was 2.9 µM. The TGI (SF-539 CNS) was 8.98 µM, the GI50 (U251 CNS) was 2.43 µM and the TGI (U251 CNS) was 7.51 µM. It also gave a GI50 (SF-295 CNS) of 2.34 µM, a TGI (SF-295 CNS) of 6.05 µM and a GI50 (HL-60(TB) leukemia) of 1.27 µM. It also gave a TGI (HL-60(TB) leukemia) of 4.43 µM, a GI50 (786-0 renal) of 3.08 µM and a TGI (786-0 renal) of 11.7 µM. It also gave a GI50 (A549 NSCLC) of 2.9 µM, a TGI (A549 NSCLC) of 12.2 µM and a GI50 (MCF7 breast) of 2.28 µM. It also gave a TGI (MCF7 breast) of 8.09 µM, a GI50 (NCI-H522 lung) of 1.39 µM and a TGI (NCI-H522 lung) of 4.01 µM. It also gave a GI50 (NCI/ADR-RES ovarian) of 2.47 µM, a TGI (NCI/ADR-RES ovarian) of 8.91 µM and a GI50 (MDA-MB-435) of 2.77 µM. It also gave a TGI (MDA-MB-435) of 10.2 µM, a GI50 (M14 melanoma) of 3.39 µM and a TGI (M14 melanoma) of 11.9 µM. For the same molecule, the GI50 (NCI-H460 lung) was 2.27 µM, the TGI (NCI-H460 lung) was 7.39 µM and the GI50 (MALME-3M melanoma) was 2.64 µM. The TGI (MALME-3M melanoma) was 7.42 µM, the GI50 (OVCAR-8 ovarian) was 2.73 µM and the TGI (OVCAR-8 ovarian) was 11 µM. The GI50 (SK-MEL-28 melanoma) was 3.71 µM, the TGI (SK-MEL-28 melanoma) was 13.7 µM and the GI50 (K-562 leukemia) was 2.34 µM. The TGI (K-562 leukemia) was 18 µM, the GI50 (HOP-62 NSCLC) was 2.98 µM and the TGI (HOP-62 NSCLC) was 9.87 µM. The GI50 (RXF 393 renal) was 2.57 µM, the TGI (RXF 393 renal) was 6.72 µM and the GI50 (OVCAR-3 ovarian) was 3.24 µM. The TGI (OVCAR-3 ovarian) was 13.1 µM, the GI50 (MOLT-4 leukemia) was 2.32 µM and the TGI (MOLT-4 leukemia) was 7.31 µM. For the same molecule, the GI50 (SN12C renal) was 2.92 µM, the TGI (SN12C renal) was 10.6 µM and the GI50 (DU-145 prostate) was 3.87 µM. It also gave a TGI (DU-145 prostate) of 13.8 µM, a GI50 (SF-268 CNS) of 3.91 µM and a TGI (SF-268 CNS) of 17.2 µM. The GI50 (HS 578T breast) was 3.14 µM, the TGI (HS 578T breast) was 14.5 µM and the GI50 (HCT-15 colon) was 2.69 µM. It also gave a TGI (HCT-15 colon) of 10.9 µM, a GI50 (NCI-H226 lung) of 2.67 µM and a TGI (NCI-H226 lung) of 8.81 µM. For the same molecule, the GI50 (OVCAR-5 ovarian) was 3.19 µM, the TGI (OVCAR-5 ovarian) was 12.1 µM and the GI50 (SK-MEL-5 melanoma) was 1.66 µM. The TGI (SK-MEL-5 melanoma) was 3.11 µM, the GI50 (SK-MEL-2 melanoma) was 2.03 µM and the TGI (SK-MEL-2 melanoma) was 4.84 µM. The GI50 (SR leukemia) was 1.98 µM, the TGI (SR leukemia) was 5.82 µM and the GI50 (IGROV1 ovarian) was 3.28 µM. For the same molecule, the TGI (IGROV1 ovarian) was 15.1 µM, the GI50 (BT-549 breast) was 2.86 µM and the TGI (BT-549 breast) was 9.06 µM. For the same molecule, the GI50 (UACC-62 melanoma) was 2.92 µM, the TGI (UACC-62 melanoma) was 12.3 µM and the GI50 (SK-OV-3 ovarian) was 2.24 µM. It also gave a TGI (SK-OV-3 ovarian) of 5.7 µM, a GI50 (MDA-MB-231 breast) of 2.75 µM and a TGI (MDA-MB-231 breast) of 7.87 µM. It also gave a GI50 (CAKI-1 renal) of 2.28 µM, a TGI (CAKI-1 renal) of 7.49 µM and a GI50 (CCRF-CEM leukemia) of 2.3 µM. For the same molecule, the TGI (CCRF-CEM leukemia) was 7.62 µM, the GI50 (HCT-116 colon) was 2.31 µM and the TGI (HCT-116 colon) was 8.7 µM. For the same molecule, the GI50 (SNB-75 CNS) was 2.24 µM, the TGI (SNB-75 CNS) was 14 µM and the GI50 (COLO 205 colon) was 2.19 µM. The TGI (COLO 205 colon) was 4.63 µM, the GI50 (HOP-92 NSCLC) was 1.86 µM and the TGI (HOP-92 NSCLC) was 5.52 µM. For the same molecule, the GI50 (HCC-2998 colon) was 3.24 µM, the TGI (HCC-2998 colon) was 11.4 µM and the GI50 (SNB-19 CNS) was 3.73 µM. It also gave a TGI (SNB-19 CNS) of 15.2 µM, a GI50 (EKVX NSCLC) of 2.87 µM and a TGI (EKVX NSCLC) of 12.4 µM. It also gave a GI50 (SW-620 colon) of 3.5 µM, a TGI (SW-620 colon) of 13.5 µM and a GI50 (UACC-257 melanoma) of 2.23 µM. It also gave a TGI (UACC-257 melanoma) of 6.78 µM, a GI50 (TK-10 renal) of 3.12 µM and a TGI (TK-10 renal) of 9.51 µM.

Source: PubChem BioAssay (NCI)
